Source: article PMC5529566, “The cryo-EM structure of gastric H^+,K^+-ATPase with bound BYK99, a high-affinity member of K^+-competitive, imidazo[1,2-a]pyridine inhibitors” (Scientific Reports, 2017)
Where “and” joins values, the source holds several entries; their conditions need not be identical. Identical values can stand only once.

Key:
[1] = pKa and protonation of imidazo[1,2-a]pyridine; format: physicochemical; details: at pH 7.0 of the ATPase assays
H^+,K^+-ATPase Y799F [2] = tested on: H^+,K^+-ATPase Y799F; parameters: method as in PMID 14699149; details: cited from earlier work
H^+,K^+-ATPase Y799A [3] = tested on: H^+,K^+-ATPase Y799A; parameters: method as in PMID 14699149; details: Y799A vs wild-type; cited from earlier work
H^+,K^+-ATPase L809F [4] = details: cited from earlier work
[5] = molecular target: H^+,K^+-ATPase A335C/C813A; parameters: method as in PMID 12379118; details: cited from earlier work
H^+,K^+-ATPase N138L = H^+,K^+-ATPase N138L (Sus scrofa, UniProt P19156, N139L); test: ATPase assay, N138L mutant
H^+,K^+-ATPase N138I = H^+,K^+-ATPase N138I (Sus scrofa, UniProt P19156, N139I); test: ATPase assay, N138I mutant
H^+,K^+-ATPase D136A = H^+,K^+-ATPase D136A (Sus scrofa, UniProt P19156, D137A); test: ATPase assay, D136A mutant
H^+,K^+-ATPase D136L = H^+,K^+-ATPase D136L (Sus scrofa, UniProt P19156, D137L); test: ATPase assay, D136L mutant
H^+,K^+-ATPase D137I = H^+,K^+-ATPase D137I (Sus scrofa, UniProt P19156, D138I); test: ATPase assay, D137I mutant
H^+,K^+-ATPase D137A = H^+,K^+-ATPase D137A (Sus scrofa, UniProt P19156, D138A); test: ATPase assay, D137A mutant
[6] = molecular target: H^+,K^+-ATPase A335C/C813A (Sus scrofa, UniProt P19156, A336C/C814A); test: ATPase assay, A335C/C813A mutant
H^+,K^+-ATPase Y140F = H^+,K^+-ATPase Y140F (Sus scrofa, UniProt P19156, Y141F); test: ATPase assay, Y140F mutant
H^+,K^+-ATPase D137N = H^+,K^+-ATPase D137N (Sus scrofa, UniProt P19156, D138N); test: ATPase assay, D137N mutant
H^+,K^+-ATPase N138A = H^+,K^+-ATPase N138A (Sus scrofa, UniProt P19156, N139A); test: ATPase assay, N138A mutant
H^+,K^+-ATPase A335G = H^+,K^+-ATPase A335G (Sus scrofa, UniProt P19156, A336G); test: ATPase assay, A335G mutant
H^+,K^+-ATPase Y140L = H^+,K^+-ATPase Y140L (Sus scrofa, UniProt P19156, Y141L); test: ATPase assay, Y140L mutant
H^+,K^+-ATPase D136F = H^+,K^+-ATPase D136F (Sus scrofa, UniProt P19156, D137F); test: ATPase assay, D136F mutant
H^+,K^+-ATPase D136I = H^+,K^+-ATPase D136I (Sus scrofa, UniProt P19156, D137I); test: ATPase assay, D136I mutant
H^+,K^+-ATPase Y799A [7] = molecular target: H^+,K^+-ATPase Y799A (Sus scrofa, UniProt P19156, Y800A); test: ATPase assay, Y799A mutant
H^+,K^+-ATPase N138F = H^+,K^+-ATPase N138F (Sus scrofa, UniProt P19156, N139F); test: ATPase assay, N138F mutant
H^+,K^+-ATPase L139I = H^+,K^+-ATPase L139I (Sus scrofa, UniProt P19156, L140I); test: ATPase assay, L139I mutant
H^+,K^+-ATPase = H^+,K^+-ATPase (Sus scrofa, UniProt P19156); test: Dose-dependent inhibition of H^+,K^+-ATPase activity in the presence of 10 mM KCl
Procedure: Reactions were initiated by incubating at 37 °C using a thermal cycler, and maintained for 1 to 5 h (depending on the activity). Reactions were terminated by withdrawing 40 μL from the 80 μL reactant, and mixing with 80 μL of stop solution comprising 6% ascorbic acid and 2% ammonium molybdate in 1 N HCl, followed by the addition of 120 μL of 2% sodium arsenate, 2% sodium citrate, and 2% acetic acid. The amount of released inorganic phosphate was determined colorimetrically[39] from absorbance at 850 nm by the microplate reader (TECAN).

H^+,K^+-ATPase Y140A = H^+,K^+-ATPase Y140A (Sus scrofa, UniProt P19156, Y141A); test: ATPase assay, Y140A mutant
H^+,K^+-ATPase L139F = H^+,K^+-ATPase L139F (Sus scrofa, UniProt P19156, L140F); test: ATPase assay, L139F mutant
H^+,K^+-ATPase L141I = H^+,K^+-ATPase L141I (Sus scrofa, UniProt P19156, L142I); test: ATPase assay, L141I mutant
[8] = molecular target: H^+,K^+-ATPase D137N/N138D (Sus scrofa, UniProt P19156, D138N/N139D); test: ATPase assay, D137N/N138D mutant; details: D137N/N138D
H^+,K^+-ATPase L139A = H^+,K^+-ATPase L139A (Sus scrofa, UniProt P19156, L140A); test: ATPase assay, L139A mutant
H^+,K^+-ATPase Y140I = H^+,K^+-ATPase Y140I (Sus scrofa, UniProt P19156, Y141I); test: ATPase assay, Y140I mutant
H^+,K^+-ATPase Y799F [9] = molecular target: H^+,K^+-ATPase Y799F (Sus scrofa, UniProt P19156, Y800F); test: ATPase assay, Y799F mutant
H^+,K^+-ATPase N138D = H^+,K^+-ATPase N138D (Sus scrofa, UniProt P19156, N139D); test: ATPase assay, N138D mutant
H^+,K^+-ATPase D137F = H^+,K^+-ATPase D137F (Sus scrofa, UniProt P19156, D138F); test: ATPase assay, D137F mutant
H^+,K^+-ATPase L809F [10] = molecular target: H^+,K^+-ATPase L809F (Sus scrofa, UniProt P19156, L810F); test: ATPase assay, L809F mutant
H^+,K^+-ATPase D137L = H^+,K^+-ATPase D137L (Sus scrofa, UniProt P19156, D138L); test: ATPase assay, D137L mutant
H^+,K^+-ATPase WT = molecular target: T1, H^+,K^+-ATPase WT (Sus scrofa, UniProt P19156); test: K^+-competitive inhibition of H^+,K^+-ATPase activity, 96-well ATPase assay, wild-type; format: biochemical, pig; details: WT
T1 construct: made in house; host or cells: HEK293S GnT1- cells (BacMam baculovirus transduction); permeabilised membrane fractions

H^+,K^+-ATPase D137E = molecular target: T2, H^+,K^+-ATPase D137E (Sus scrofa, UniProt P19156, D138E); test: ATPase assay, D137E mutant; format: biochemical, pig
T2 construct: made in house; host or cells: HEK293S GnT1- cells (BacMam baculovirus transduction), membrane fraction

Sequence of H^+,K^+-ATPase A335C/C813A (Sus scrofa, UniProt P19156, A336C/C814A) (P19156 whole entry A336C/C814A): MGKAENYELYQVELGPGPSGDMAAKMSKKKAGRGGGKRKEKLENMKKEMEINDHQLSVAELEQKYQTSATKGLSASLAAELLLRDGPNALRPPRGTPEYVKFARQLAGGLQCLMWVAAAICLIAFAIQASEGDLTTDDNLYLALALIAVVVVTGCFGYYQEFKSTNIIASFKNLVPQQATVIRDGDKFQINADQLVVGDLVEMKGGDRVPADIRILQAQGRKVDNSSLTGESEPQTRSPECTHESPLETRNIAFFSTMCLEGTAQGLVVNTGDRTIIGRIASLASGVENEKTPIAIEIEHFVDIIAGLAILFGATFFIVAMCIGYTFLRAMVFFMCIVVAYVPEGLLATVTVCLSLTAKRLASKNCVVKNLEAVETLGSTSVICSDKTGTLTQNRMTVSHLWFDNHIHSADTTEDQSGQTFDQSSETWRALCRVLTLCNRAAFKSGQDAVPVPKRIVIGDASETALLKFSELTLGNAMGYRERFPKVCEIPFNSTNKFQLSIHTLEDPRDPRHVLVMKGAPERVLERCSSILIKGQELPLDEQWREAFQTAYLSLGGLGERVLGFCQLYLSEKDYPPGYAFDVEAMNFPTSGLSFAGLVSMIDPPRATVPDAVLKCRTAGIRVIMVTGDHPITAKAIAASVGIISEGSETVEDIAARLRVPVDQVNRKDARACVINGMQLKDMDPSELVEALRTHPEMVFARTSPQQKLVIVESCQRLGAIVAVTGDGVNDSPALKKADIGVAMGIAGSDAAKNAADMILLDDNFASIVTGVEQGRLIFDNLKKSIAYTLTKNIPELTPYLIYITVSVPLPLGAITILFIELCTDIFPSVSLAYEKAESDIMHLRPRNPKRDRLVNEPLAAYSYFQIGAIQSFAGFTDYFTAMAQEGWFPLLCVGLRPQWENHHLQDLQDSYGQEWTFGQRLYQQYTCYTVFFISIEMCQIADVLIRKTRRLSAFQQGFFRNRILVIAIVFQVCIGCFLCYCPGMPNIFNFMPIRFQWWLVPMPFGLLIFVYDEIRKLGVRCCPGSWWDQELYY
Sequence of H^+,K^+-ATPase A335C/C813A (Sus scrofa, UniProt P19156, A336C/C814A) (P18434 whole entry partner): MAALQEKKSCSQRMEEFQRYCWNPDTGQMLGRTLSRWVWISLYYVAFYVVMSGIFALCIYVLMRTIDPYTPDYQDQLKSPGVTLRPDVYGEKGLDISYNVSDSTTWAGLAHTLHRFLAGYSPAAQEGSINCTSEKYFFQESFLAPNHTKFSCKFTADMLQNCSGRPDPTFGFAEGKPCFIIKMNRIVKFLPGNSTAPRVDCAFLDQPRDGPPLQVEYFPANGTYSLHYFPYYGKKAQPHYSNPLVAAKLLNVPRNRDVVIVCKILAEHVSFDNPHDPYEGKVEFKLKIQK
Sequence of H^+,K^+-ATPase Y799F (Sus scrofa, UniProt P19156, Y800F) (P19156 whole entry Y800F): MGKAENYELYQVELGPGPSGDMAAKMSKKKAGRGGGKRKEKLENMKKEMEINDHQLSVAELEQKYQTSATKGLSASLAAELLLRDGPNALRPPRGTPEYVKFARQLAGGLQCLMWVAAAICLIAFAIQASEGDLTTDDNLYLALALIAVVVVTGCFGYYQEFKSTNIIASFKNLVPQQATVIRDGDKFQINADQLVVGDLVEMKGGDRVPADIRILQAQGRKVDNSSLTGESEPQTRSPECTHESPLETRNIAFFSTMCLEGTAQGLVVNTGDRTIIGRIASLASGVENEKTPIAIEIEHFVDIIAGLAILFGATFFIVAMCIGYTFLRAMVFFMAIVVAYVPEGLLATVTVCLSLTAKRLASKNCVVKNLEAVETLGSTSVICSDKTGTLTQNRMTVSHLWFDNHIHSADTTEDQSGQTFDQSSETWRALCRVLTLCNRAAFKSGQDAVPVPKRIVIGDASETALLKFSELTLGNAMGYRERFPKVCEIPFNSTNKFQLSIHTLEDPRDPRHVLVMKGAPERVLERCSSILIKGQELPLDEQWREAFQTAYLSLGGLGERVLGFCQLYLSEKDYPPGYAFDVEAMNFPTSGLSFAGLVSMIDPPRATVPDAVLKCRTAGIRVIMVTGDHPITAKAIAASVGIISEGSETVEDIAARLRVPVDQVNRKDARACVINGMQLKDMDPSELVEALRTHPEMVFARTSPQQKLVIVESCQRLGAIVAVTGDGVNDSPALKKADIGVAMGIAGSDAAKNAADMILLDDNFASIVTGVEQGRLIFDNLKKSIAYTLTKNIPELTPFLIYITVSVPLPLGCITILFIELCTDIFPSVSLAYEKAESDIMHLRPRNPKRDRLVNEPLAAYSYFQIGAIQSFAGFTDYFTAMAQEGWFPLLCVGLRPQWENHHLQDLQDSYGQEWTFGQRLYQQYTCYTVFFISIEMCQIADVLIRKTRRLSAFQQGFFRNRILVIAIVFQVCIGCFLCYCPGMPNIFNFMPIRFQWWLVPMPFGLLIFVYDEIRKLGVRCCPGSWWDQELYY
Sequence of H^+,K^+-ATPase Y799F (Sus scrofa, UniProt P19156, Y800F) (P18434 whole entry partner): as the sequence (P18434 whole entry partner) above
Sequence of H^+,K^+-ATPase N138A (P19156 whole entry N139A): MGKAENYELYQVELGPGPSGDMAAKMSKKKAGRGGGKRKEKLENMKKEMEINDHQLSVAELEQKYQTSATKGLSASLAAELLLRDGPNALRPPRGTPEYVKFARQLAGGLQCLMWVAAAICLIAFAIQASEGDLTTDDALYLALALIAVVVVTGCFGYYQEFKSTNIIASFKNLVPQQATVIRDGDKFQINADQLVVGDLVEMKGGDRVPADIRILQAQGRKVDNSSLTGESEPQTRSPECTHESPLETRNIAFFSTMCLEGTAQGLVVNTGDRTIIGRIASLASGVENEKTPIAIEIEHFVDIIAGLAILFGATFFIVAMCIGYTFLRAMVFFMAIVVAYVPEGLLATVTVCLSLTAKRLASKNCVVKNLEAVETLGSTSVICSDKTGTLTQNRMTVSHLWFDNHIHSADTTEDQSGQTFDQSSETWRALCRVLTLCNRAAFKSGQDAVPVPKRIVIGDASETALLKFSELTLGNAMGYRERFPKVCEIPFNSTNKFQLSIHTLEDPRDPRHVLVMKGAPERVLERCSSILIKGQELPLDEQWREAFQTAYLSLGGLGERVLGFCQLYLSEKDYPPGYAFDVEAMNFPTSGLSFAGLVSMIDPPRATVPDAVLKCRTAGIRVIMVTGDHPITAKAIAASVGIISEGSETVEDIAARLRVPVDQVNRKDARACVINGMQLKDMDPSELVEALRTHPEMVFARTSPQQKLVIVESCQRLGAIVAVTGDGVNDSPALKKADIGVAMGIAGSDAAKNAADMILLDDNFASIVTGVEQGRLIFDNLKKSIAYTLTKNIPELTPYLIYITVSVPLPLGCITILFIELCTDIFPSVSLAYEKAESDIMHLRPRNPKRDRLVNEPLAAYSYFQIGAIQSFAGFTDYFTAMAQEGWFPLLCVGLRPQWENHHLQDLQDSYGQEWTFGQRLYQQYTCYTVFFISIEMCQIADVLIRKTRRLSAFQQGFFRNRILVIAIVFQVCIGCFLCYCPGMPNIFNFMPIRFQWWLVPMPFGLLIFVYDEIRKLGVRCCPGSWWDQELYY
Sequence of H^+,K^+-ATPase N138A (P18434 whole entry partner): as the sequence (P18434 whole entry partner) above
Sequence of H^+,K^+-ATPase D137F (P19156 whole entry D138F): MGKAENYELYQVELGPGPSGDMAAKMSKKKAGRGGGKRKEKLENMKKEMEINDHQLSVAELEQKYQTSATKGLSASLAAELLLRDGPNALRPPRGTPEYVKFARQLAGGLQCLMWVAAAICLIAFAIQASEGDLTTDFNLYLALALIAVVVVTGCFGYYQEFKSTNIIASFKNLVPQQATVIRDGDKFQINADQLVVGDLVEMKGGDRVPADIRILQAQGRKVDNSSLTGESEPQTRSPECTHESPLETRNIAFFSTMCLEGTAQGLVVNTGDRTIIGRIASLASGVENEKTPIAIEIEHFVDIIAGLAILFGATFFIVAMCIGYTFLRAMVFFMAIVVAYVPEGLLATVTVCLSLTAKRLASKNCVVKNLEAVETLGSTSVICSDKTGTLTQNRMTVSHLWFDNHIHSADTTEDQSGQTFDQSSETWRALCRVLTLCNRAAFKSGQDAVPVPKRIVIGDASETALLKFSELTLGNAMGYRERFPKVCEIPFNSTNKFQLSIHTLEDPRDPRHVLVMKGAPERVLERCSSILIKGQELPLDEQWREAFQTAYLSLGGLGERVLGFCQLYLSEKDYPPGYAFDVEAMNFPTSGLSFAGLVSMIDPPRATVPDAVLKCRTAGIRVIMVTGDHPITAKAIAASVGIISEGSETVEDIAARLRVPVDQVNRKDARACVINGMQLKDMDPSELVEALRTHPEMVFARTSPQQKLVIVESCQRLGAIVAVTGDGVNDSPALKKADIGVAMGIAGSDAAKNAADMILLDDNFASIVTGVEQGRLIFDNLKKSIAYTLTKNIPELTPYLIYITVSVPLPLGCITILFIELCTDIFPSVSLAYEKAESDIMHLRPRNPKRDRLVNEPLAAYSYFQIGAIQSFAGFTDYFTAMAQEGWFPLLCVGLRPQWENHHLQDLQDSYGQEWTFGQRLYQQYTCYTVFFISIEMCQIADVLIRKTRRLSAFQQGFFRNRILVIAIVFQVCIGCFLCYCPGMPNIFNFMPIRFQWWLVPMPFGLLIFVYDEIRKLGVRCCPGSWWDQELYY
Sequence of H^+,K^+-ATPase D137F (P18434 whole entry partner): as the sequence (P18434 whole entry partner) above

## Cc1nc2c(OCc3ccccc3)cccn2c1CC#N [SCH28080]
[1]
  protonation: approximately 2.5%
H^+,K^+-ATPase Y799F [2]
  effect on affinity (in words): negligible effects
H^+,K^+-ATPase Y799A [3]
  fold low apparent affinity (IC 50): ~ 100 fold and 100 fold
H^+,K^+-ATPase L809F [4]; L809F vs wild-type, previously reported
  fold reduced affinity: more than 90 fold
H^+,K^+-ATPase L809F [4]; L809F
  Ki: 6.15 µM
[5]
  Ki: > 40 µM
  affinity (in words): almost no affinity

## Cc1cn2cccc(OCc3ccccc3)c2n1 [SCH-CN^−]
H^+,K^+-ATPase N138L
  Ki: 14 ± 2 µM
H^+,K^+-ATPase N138L; N138L
  -fold increase in K i compared with wild-type: 4.4 fold
H^+,K^+-ATPase N138I
  Ki: 3.7 ± 0.7 µM
H^+,K^+-ATPase N138I; N138I
  -fold increase in K i compared with wild-type: 1.2 fold
H^+,K^+-ATPase D136A
  Ki: 5.1 ± 0.4 µM
H^+,K^+-ATPase D136A; D136A
  -fold increase in K i compared with wild-type: 1.6 fold
H^+,K^+-ATPase D136L
  Ki: 3.3 ± 0.2 µM
H^+,K^+-ATPase D136L; D136L
  -fold increase in K i compared with wild-type: 1.0 fold
H^+,K^+-ATPase D137I
  Ki: 39 ± 7 µM
H^+,K^+-ATPase D137I; D137I
  -fold increase in K i compared with wild-type: 12 fold
H^+,K^+-ATPase D137A
  Ki: 28 ± 2 µM
H^+,K^+-ATPase D137A; D137A
  -fold increase in K i compared with wild-type: 8.8 fold
[6]
  Ki: 71 ± 10 µM
[6]; A335C/C813A
  -fold increase in K i compared with wild-type: 22 fold
H^+,K^+-ATPase Y140F
  Ki: 3.7 ± 0.2 µM
H^+,K^+-ATPase Y140F; Y140F
  -fold increase in K i compared with wild-type: 1.2 fold
H^+,K^+-ATPase D137N
  Ki: 120 ± 30 µM
H^+,K^+-ATPase D137N; D137N
  -fold increase in K i compared with wild-type: 38 fold
H^+,K^+-ATPase N138A
  Ki: 4.2 ± 0.5 µM
H^+,K^+-ATPase N138A; N138A
  -fold increase in K i compared with wild-type: 1.3 fold
H^+,K^+-ATPase A335G
  Ki: 1 ± 0.1 µM
H^+,K^+-ATPase A335G; A335G
  -fold increase in K i compared with wild-type: 0.3 fold
H^+,K^+-ATPase Y140L
  Ki: 2.7 ± 0.2 µM
H^+,K^+-ATPase Y140L; Y140L
  -fold increase in K i compared with wild-type: 0.8 fold
H^+,K^+-ATPase D136F
  Ki: 2.9 ± 0.1 µM
H^+,K^+-ATPase D136F; D136F
  -fold increase in K i compared with wild-type: 0.9 fold
H^+,K^+-ATPase D136I
  Ki: 4.1 ± 0.3 µM
H^+,K^+-ATPase D136I; D136I
  -fold increase in K i compared with wild-type: 1.3 fold
H^+,K^+-ATPase Y799A [7]
  Ki: 81 ± 15 µM
H^+,K^+-ATPase Y799A [7]; Y799A
  -fold increase in K i compared with wild-type: 25 fold
H^+,K^+-ATPase N138F
  Ki: 52 ± 9 µM
H^+,K^+-ATPase N138F; N138F
  -fold increase in K i compared with wild-type: 16 fold
H^+,K^+-ATPase L139I
  Ki: 1.1 ± 0.1 µM
H^+,K^+-ATPase L139I; L139I
  -fold increase in K i compared with wild-type: 0.3 fold
H^+,K^+-ATPase
  IC50: 110 µM
H^+,K^+-ATPase Y140A
  Ki: 7.3 ± 1 µM
H^+,K^+-ATPase Y140A; Y140A
  -fold increase in K i compared with wild-type: 2.3 fold
H^+,K^+-ATPase L139F
  Ki: 6.6 ± 0.5 µM
H^+,K^+-ATPase L139F; L139F
  -fold increase in K i compared with wild-type: 2.1 fold
H^+,K^+-ATPase L141I
  Ki: 2.4 ± 0.2 µM
H^+,K^+-ATPase L141I; L141I
  -fold increase in K i compared with wild-type: 0.8 fold
[8]
  -fold increase in K i compared with wild-type: 7.2 fold
[8]; global fitting
  Ki: 23 ± 20 µM
H^+,K^+-ATPase L139A
  Ki: 3.3 ± 0.3 µM
H^+,K^+-ATPase L139A; L139A
  -fold increase in K i compared with wild-type: 1.0 fold
H^+,K^+-ATPase Y140I
  Ki: 2.1 ± 0.2 µM
H^+,K^+-ATPase Y140I; Y140I
  -fold increase in K i compared with wild-type: 0.7 fold
H^+,K^+-ATPase Y799F [9]
  Ki: 18 ± 2 µM
H^+,K^+-ATPase Y799F [9]; Y799F
  -fold increase in K i compared with wild-type: 5.6 fold
H^+,K^+-ATPase N138D
  Ki: 2.6 ± 0.2 µM
H^+,K^+-ATPase N138D; N138D
  -fold increase in K i compared with wild-type: 0.8 fold
H^+,K^+-ATPase D137F
  Ki: 47 ± 6 µM
H^+,K^+-ATPase D137F; D137F
  -fold increase in K i compared with wild-type: 15 fold
H^+,K^+-ATPase L809F [10]
  Ki: 98 ± 12 µM
H^+,K^+-ATPase L809F [10]; L809F
  -fold increase in K i compared with wild-type: 31 fold
H^+,K^+-ATPase D137L
  Ki: 32 ± 6 µM
H^+,K^+-ATPase D137L; D137L
  -fold increase in K i compared with wild-type: 10 fold
H^+,K^+-ATPase WT
  -fold increase in K i compared with wild-type: 1.0 fold
H^+,K^+-ATPase WT; global fitting, mean ± SEM
  Ki: 3.2 ± 0.3 µM
H^+,K^+-ATPase D137E
  -fold increase in K i compared with wild-type: 1.4 fold
H^+,K^+-ATPase D137E; high H^+-ATPase activity, K i' determined by K m/V max plot
  Ki: 4.4 ± 0.4 µM
